Measurements as given in article PMC12045974, “T cell toxicity induced by tigecycline binding to the mitochondrial ribosome” (Nature Communications, 2025).
Where “and” joins values, the source holds several entries; their conditions need not be identical. Identical values can stand only once.

How the values were obtained:
[1] = tested on: mitochondrial translation in CD4+ and CD8+ T cells; experiment: Mito-FUNCAT-FACS assay of mitochondrial translation on activated T cells; format: cell-based, human; conditions: for mitochondrial translation (fold change relative to negative control): per PBMC donor
Description: Thawed PBMCs were washed with RPMI ( + 10% FBS, 2.05 mM L-glutamine (Sigma), and 55 μM 2-ME (Gibco)) before resting at 37 °C (5% CO2) for 30 min. After counting, cells were resuspended in FACS buffer at a density of 5 × 10^7 cells/ml. T cells were isolated using EasySep™ Human T Cell Isolation Kit (Stemcell Technologies). Purified T cells were counted and 85,000 cells per well seeded onto 96-well U-bottom plates with/without Human T-Activator CD3/CD28 beads (Invitrogen) at a 1:2.8 cell:bead ratio and 10 ng/ml IL-2 (Proteintech) in RPMI-1640 ( + 10% FBS, 2.05 mM L-glutamine (Sigma), and 55 μM 2-ME (Gibco)) for 48 h. To assess mitochondrial translation, activated T cells were washed twice with methionine/cysteine/pyruvate-free DMEM and incubated in methionine-depletion medium (DMEM supplemented with 10% dialyzed FBS, 1× GlutaMAX, 1× sodium pyruvate, and 0.2 mM L-cystine) for 30 min at 37 °C. To inhibit cytosolic translation, anisomycin (100 μg/mL) was added to the medium. For mitochondrial translation inhibition, 100 µg/mL chloramphenicol (309 μM, positive control) or tigecycline (2.5−10 μM) were added to the medium. Cells were then labeled with 50 μM L-homopropargylglycine (HPG) for 3 h at 37 °C, during which time the medium still contained antibiotics.
Following HPG labeling, cells were collected and stained with surface markers (CD4, CD8). Cells were pre-permeabilized with 0.005% digitonin in mitochondria-protective buffer (10 mM HEPES/KOH, 10 mM NaCl, 5 mM MgCl2, 300 mM sucrose, pH 7.5) for 3 min, fixed with 4% paraformaldehyde for 10 min, and fully permeabilized with 0.25% Triton X-100 for 5 min. After blocking with 5% BSA for 10 min, incorporated HPG was detected via copper-catalyzed cycloaddition using 0.05 μM Alexa Fluor 488 picolyl azide (Click-iT™ Plus Alexa Fluor™ 488 Picolyl Azide Toolkit, Gibco) for 30 min at room temperature. Subsequently, the reaction cocktail was removed and cells resuspended in FACS buffer. Flow cytometry was carried out on a BD Celesta (BD Biosciences) and analyzed in FlowJo (TreeStar). Data are presented as fold change relative to negative controls.

[2] = tested on: 55S mitochondrial ribosomes (mitoribosomes) from Jurkat T cells; experiment: Single-particle cryo-EM of mitoribosome-tigecycline complex; format: binding, human; conditions: 30 µM
Description: Jurkat T cells were grown in RPM1-1640 medium ( + 10% FBS, 2.05 mM L-glutamine (Sigma), and 55 μM 2-ME (Gibco)) in a vented flask shaking at 120 rpm at 37 °C under 5% CO2. The culture was scaled up by splitting at a cell density of 1.6 × 10^6 cells/ml. A final volume of 1.5-liter cells at a density of 1 × 10^6 cells/ml was harvested by centrifugation at 1000 x g for 10 min at 4 °C. After being washed with cold PBS buffer, the cell pellet was resuspended in the cold hypotonic MSE buffer (with 0.6 M mannitol, 10 mM Tris–HCl pH 7.4, 1 mM EDTA, 0.1% BSA), and ruptured on ice by a semi-automatic homogenizer (Schuett-biotech). The lysate was clarified by centrifugation at 400 x g and 4 °C for 10 min. The pellet was resuspended and subsequently homogenized. After 3 cycles of homogenization-centrifugation, the cell lysates were combined and the mitochondria were pelleted by additional centrifugation at 11,000 x g and 4 °C for 10 min. […]
The purified mitochondria were thawed and lysed by incubating at 4 °C for 30 min in the lysis buffer (25 mM HEPES–KOH pH 7.5, 20 mM Mg(OAc)2, 50 mM KCl, 2% (vol/vol) Triton X-100, 2 mM Dithiothreitol (DTT), 1× cOmplete EDTA-free protease inhibitor cocktail (Roche), 40 U/μl RNase inhibitor (Invitrogen)). […] The concentration of the purified monosomes was quantified by nanodrop. […]

CN(C)c1cc(NC(=O)CNC(C)(C)C)c(O)c2c1C[C@H]1C[C@H]3[C@H](N(C)C)C(O)=C(C(N)=O)C(=O)[C@@]3(O)C(O)=C1C2=O [Tigecycline, tigecycline]
mitochondrial translation (fold change relative to negative control) ([1]; CD4, 2.5µM): 0.947 and 0.7157 and 0.7389 | mitochondrial translation (fold change relative to negative control) ([1]; CD4, 5µM): 0.8077 and 0.645 and 0.697 | mitochondrial translation (fold change relative to negative control) ([1]; CD4, 10µM): 0.7443 and 0.3992 and 0.6483 and 0.5621 | mitochondrial translation (fold change relative to negative control) ([1]; CD8, 2.5µM): 0.9388 and 0.7432 and 0.8324 | mitochondrial translation (fold change relative to negative control) ([1]; CD8, 5µM): 0.8134 and 0.656 and 0.7756 | mitochondrial translation (fold change relative to negative control) ([1]; CD8, 10µM): 0.7567 and 0.4193 and 0.7571 and 0.5029 | inhibition of mitochondrial translation ([1]; TCR-stimulated CD4+ and CD8+ T cells, 2.5-10 μM): dose-dependent inhibition of mitochondrial translation | occupancy on the mitoribosome ([2]; mtSSU and mtLSU site-1, P-site-only class): exceeding 80% | binding sites on the mitoribosome ([2]; one on the mtSSU, two on the mtLSU): three densities corresponding to tigecycline molecules
